Data: ChEMBL document CHEMBL1177883, “5D-QSAR for spirocyclic sigma1 receptor ligands by Quasar receptor surface modeling” (Eur J Med Chem, 2010)

The compounds below were run against Sigma non-opioid intracellular receptor 1 (Cavia porcellus, UniProt Q60492) (assay: Displacement of [3H](+)-pentazocine from sigma 1 receptor in guinea pig brain membrane).
Assay type: cell membranes

Sequence of Sigma non-opioid intracellular receptor 1 (Q60492 whole entry): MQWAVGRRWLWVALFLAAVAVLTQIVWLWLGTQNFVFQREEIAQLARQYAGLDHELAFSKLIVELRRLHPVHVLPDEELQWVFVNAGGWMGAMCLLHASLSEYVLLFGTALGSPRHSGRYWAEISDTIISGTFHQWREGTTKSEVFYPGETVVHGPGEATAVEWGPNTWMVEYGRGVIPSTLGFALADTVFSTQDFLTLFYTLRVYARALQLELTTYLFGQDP

Compound | Ki
COC(=O)c1cc2c(s1)C[C@H](OC)OC21CCN(Cc2ccccc2)CC1 | 10.9 nM
OCC[C@@H]1Cc2ccccc2C2(CCN(CC3CCCCC3)CC2)O1 | 9 nM
CO[C@H]1Cc2sccc2C2(CCN(CCc3ccccc3)CC2)O1 | 5.9 nM
O[C@H]1Cc2ccccc2C2(CCN(CCc3ccccc3)CC2)O1 | 44 nM
CCOC(=O)C[C@H]1Cc2ccccc2C2(CCN(Cc3ccccc3)CC2)O1 | 183 nM
CCOC(=O)C[C@H]1OC2(CCN(Cc3ccccc3)CC2)c2ccccc21 | 15 nM
CO[C@H]1Cc2c(cnn2-c2ccccc2)C2(CCN(Cc3ccccc3)CC2)O1 | 1.5 nM
OCC[C@H]1Cc2ccccc2C2(CCN(Cc3ccccc3)CC2)O1 | 10 nM
CO[C@H]1Cc2ccccc2C2(CCN(CCCCc3ccccc3)CC2)O1 | 10 nM
OCC[C@H]1Cc2ccccc2C2(CCN(CCCc3ccccc3)CC2)O1 | 15 nM
CCCN1CCC2(CC1)O[C@@H](OC)Cc1c2cnn1C | 2980 nM
CCCN1CCC2(CC1)O[C@@H](OC)Cc1c2cnn1-c1ccccc1 | 33 nM
CO[C@H]1Cc2sc(CN(C)C)cc2C2(CCN(Cc3ccccc3)CC2)O1 | 17 nM
CC(=O)C[C@H]1Cc2sccc2C2(CCN(Cc3ccccc3)CC2)O1 | 12 nM
CO[C@H]1Cc2sccc2C2(CCN(CC3CCCCC3)CC2)O1 | 0.3 nM
CO[C@H]1Cc2sccc2C2(CCN(CC=C(C)C)CC2)O1 | 1 nM
CCC[C@H]1OC2(CCN(Cc3ccccc3)CC2)c2ccccc21 | 3.2 nM
CO[C@H]1Cc2sccc2C2(CCN(CCCCc3ccccc3)CC2)O1 | 7.7 nM
CO[C@@H]1OC2(CCN(Cc3ccccc3)CC2)c2cnn(-c3ccccc3)c21 | 0.49 nM

Compound | Ki
O[C@H]1OC2(CCN(CCc3ccccc3)CC2)c2ccccc21 | 109 nM
CO[C@H]1Cc2sccc2C2(CCN(Cc3ccccc3)CC2)O1 | 0.32 nM
CO[C@H]1Cc2sc(C(=O)c3ccccc3)cc2C2(CCN(Cc3ccccc3)CC2)O1 | 3.7 nM
OCC[C@H]1Cc2ccccc2C2(CCN(CC3CCCCC3)CC2)O1 | 10 nM
OCC[C@@H]1Cc2ccccc2C2(CCN(Cc3ccccc3)CC2)O1 | 48 nM
CO[C@@H]1Cc2ccccc2[C@@]2(CCCN(Cc3ccccc3)C2)O1 (racemic) | 1720 nM
CO[C@H]1Cc2ccccc2C2(CCN(C)CC2)O1 | 4400 nM
CCCCN1CCC[C@@]2(C1)O[C@H](OC)Cc1ccccc12 (racemic) | 1290 nM
CO[C@H]1Cc2c(cnn2-c2ccccc2)C2(CCN(C(C)C)CC2)O1 | 210 nM
CO[C@@H]1Cc2ccccc2[C@@]2(CCCN(CCc3ccccc3)C2)O1 (racemic) | 470 nM
CO[C@H]1Cc2c(cnn2-c2ccccc2)C2(CCN(CC(C)C)CC2)O1 | 6.3 nM
c1ccc(CCCN2CCC3(CC2)OCCc2c3cnn2-c2ccccc2)cc1 | 0.81 nM
CC(C)=CCN1CCC2(CC1)OCCc1c2cnn1C | 14 nM
CO[C@H]1Cc2sc(-c3ccccc3)cc2C2(CCN(Cc3ccco3)CC2)O1 | 2.2 nM
Cn1ncc2c1CCOC21CCN(CCCc2ccccc2)CC1 | 17 nM
OCC[C@@H]1Cc2ccccc2C2(CCN(CCCc3ccccc3)CC2)O1 | 68 nM
CC(=O)C[C@@H]1Cc2sccc2C2(CCN(Cc3ccccc3)CC2)O1 | 9.4 nM
CO[C@H]1CCc2ccccc2C2(CCN(Cc3ccccc3)CC2)O1 | 2.6 nM
CO[C@H]1Cc2c(cnn2C)C2(CCN(Cc3ccccc3)CC2)O1 | 21 nM
